Experimental data published in patent US20140220081A1, “USE OF A GALACTOSE-DERIVED C-GLYCOSIDE COMPOUND AS AN AGENT FOR ACTIVATING AND REGULATING CUTANEOUS IMMUNITY” (L'OREAL, priority 2006, published 2014).

System: human peripheral blood cells
Experiment: Immunostimulant activity: human lymphocyte proliferation revealed by BrdU labelling
Assay type: cell-based
Conditions: for % stimulation relative to the control: 3 days of culture, BrdU labelling
Experimental: The immunostimulant activity is tested in the following way: human peripheral blood cells are cultured in the presence of an RPMI-type culture medium supplemented with L-glutamine (2 mM), penicillin/streptomycin (50 μg/50 IU/ml) and foetal calf serum (10%). The C-glycoside derivatives are added at various concentrations (10 to 0.05 mM), as is phyto-haemagglutinin (PHA at 5 […]), a positive control for lymphocyte proliferation.

Compound: CC(=O)C[C@@H]1O[C@H](CO)[C@H](O)[C@H](O)[C@H]1O [Compound 1, 1-(C-β-galactopyranosyl)propan-2-one]
- % stimulation relative to the control (0.05 mM): 91%
- % stimulation relative to the control (0.1 mM): 89%
- % stimulation relative to the control (0.5 mM): 130%
- % stimulation relative to the control (1 mM): 138%
- % stimulation relative to the control (5 mM): 261%
- % stimulation relative to the control (10 mM): 271%
- human lymphocyte proliferation (result in words) (all the concentrations tested (10 to 0.05 mM)): tendency to stimulate human lymphocyte proliferation at all the concentrations tested
